# Experimental data reported in US8486939B2, “Pyrimidinyl and 1,3,5-triazinyl benzimidazoles and their use in cancer therapy” (Pathway Therapeutics Inc., priority 2009, dated 2013).
# Assays:
# p110α/p85 = p110α/p85 (Homo sapiens, UniProt P42336); assay: Inhibition of isolated enzyme (lipid kinase assay, [γ33P]ATP, TLC); format: biochemical; conditions: recombinant enzyme, 100 μM ATP, 1 hr room temperature, average of two experiments
# Experimental: (§1) Compounds were evaluated for their ability to inhibit Class I PI 3-kinase enzymes p110δ/p85, p110α/p85, and p110β/p85. Reaction mixtures comprising 0.1 μg of a recombinant enzyme, 10 μg of L-α-phosphatidylinositol, and 2× Lipid Kinase Buffer (40 mM Tris-HCl, pH 7.4, 200 mM NaCl, 1 mM EDTA), which contains either DMSO only as a control or the test compound in DMSO (the final DMSO concentration is 1%), were activated by the addition of an ATP mix (5 mM MgCl2, 100 μM ATP, and 0.1 μL [γ^33P]ATP). Reactions were incubated at room temperature for 1 hr, and then stopped by the addition of 1M HCl. The lipids were then extracted using a two step procedure. Firstly, 200 μL of chloroform/methanol (1:1) was added, the biphasic reactions mixed and centrifuged briefly, and the inorganic phase was removed and discarded. Following this, 80 μL of methanol:HCl (1:1) was added and the same procedure followed. The organic phase (70 μL) was then transferred to a clean 1.6 mL tube and the reactions were dried using a Speedvac, with no heating, for […]. The reactions were spotted onto TLC plates (Merck Ltd) and developed for 1 hr in propanol-1:2 M acetic acid (13:7). The TLC plates were then dried at room temperature and quantified using a phosphorimager (StormImager, Amersham). Nine compound concentrations were used for each test compound to determine its IC50 value. Each experiment was performed twice and the average IC50 value is used herein.
# p110β/p85 = p110β/p85 (Homo sapiens, UniProt P42338); assay: as above; format: biochemical; conditions: recombinant enzyme, 100 μM ATP, 1 hr room temperature, average of two experiments
# p110β/p85, sequence (P42338 whole entry, species assumed): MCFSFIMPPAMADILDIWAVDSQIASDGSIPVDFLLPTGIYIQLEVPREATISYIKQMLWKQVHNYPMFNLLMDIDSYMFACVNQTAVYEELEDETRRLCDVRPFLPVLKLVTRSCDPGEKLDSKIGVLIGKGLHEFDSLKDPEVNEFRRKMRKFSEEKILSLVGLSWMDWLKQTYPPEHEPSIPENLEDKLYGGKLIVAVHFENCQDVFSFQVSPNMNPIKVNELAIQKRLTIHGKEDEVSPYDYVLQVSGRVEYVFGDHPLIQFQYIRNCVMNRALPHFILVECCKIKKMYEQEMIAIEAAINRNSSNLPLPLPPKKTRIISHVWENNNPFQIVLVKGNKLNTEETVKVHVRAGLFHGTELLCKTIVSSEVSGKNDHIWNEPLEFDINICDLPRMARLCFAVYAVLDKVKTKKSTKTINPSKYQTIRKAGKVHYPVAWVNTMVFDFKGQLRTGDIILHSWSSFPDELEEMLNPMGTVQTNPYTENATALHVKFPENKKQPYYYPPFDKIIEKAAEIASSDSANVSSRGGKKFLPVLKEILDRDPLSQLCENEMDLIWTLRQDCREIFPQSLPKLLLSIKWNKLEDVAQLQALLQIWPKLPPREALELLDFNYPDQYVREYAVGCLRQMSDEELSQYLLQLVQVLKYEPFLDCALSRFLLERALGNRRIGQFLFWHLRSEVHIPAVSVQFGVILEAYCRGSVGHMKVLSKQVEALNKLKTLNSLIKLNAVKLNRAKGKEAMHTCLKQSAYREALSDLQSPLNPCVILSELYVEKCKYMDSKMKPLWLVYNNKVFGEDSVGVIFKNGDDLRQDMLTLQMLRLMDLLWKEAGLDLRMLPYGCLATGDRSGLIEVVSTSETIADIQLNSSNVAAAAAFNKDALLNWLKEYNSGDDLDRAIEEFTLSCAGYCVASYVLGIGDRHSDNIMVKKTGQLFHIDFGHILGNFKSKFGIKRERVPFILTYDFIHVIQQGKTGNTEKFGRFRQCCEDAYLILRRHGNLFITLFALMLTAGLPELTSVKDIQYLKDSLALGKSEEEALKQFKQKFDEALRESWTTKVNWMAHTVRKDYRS
# p110β/p85, sequence (P27986 whole entry partner, species assumed): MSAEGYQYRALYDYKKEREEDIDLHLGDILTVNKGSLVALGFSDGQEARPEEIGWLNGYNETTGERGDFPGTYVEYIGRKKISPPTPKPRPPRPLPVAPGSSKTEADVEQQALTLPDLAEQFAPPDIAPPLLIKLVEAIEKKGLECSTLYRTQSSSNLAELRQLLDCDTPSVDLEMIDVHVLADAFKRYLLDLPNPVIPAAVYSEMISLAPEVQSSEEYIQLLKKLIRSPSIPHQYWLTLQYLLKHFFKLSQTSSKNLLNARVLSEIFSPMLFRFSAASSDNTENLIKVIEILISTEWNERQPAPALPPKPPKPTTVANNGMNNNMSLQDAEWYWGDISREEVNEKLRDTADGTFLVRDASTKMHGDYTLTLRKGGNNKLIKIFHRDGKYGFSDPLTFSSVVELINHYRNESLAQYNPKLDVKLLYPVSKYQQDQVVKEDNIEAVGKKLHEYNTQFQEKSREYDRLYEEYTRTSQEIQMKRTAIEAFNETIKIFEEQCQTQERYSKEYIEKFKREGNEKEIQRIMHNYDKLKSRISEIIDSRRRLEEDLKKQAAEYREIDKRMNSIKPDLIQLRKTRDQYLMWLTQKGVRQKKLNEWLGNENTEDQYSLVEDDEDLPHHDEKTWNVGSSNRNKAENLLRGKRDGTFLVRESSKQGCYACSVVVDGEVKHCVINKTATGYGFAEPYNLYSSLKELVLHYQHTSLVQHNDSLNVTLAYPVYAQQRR
# Experimental: as §1
# p110δ/p85 = p110δ/p85 (Homo sapiens, UniProt O00329); assay: as above; format: biochemical; conditions: recombinant enzyme, 100 μM ATP, 1 hr room temperature, average of two experiments
# p110δ/p85, sequence (O00329 whole entry, species assumed): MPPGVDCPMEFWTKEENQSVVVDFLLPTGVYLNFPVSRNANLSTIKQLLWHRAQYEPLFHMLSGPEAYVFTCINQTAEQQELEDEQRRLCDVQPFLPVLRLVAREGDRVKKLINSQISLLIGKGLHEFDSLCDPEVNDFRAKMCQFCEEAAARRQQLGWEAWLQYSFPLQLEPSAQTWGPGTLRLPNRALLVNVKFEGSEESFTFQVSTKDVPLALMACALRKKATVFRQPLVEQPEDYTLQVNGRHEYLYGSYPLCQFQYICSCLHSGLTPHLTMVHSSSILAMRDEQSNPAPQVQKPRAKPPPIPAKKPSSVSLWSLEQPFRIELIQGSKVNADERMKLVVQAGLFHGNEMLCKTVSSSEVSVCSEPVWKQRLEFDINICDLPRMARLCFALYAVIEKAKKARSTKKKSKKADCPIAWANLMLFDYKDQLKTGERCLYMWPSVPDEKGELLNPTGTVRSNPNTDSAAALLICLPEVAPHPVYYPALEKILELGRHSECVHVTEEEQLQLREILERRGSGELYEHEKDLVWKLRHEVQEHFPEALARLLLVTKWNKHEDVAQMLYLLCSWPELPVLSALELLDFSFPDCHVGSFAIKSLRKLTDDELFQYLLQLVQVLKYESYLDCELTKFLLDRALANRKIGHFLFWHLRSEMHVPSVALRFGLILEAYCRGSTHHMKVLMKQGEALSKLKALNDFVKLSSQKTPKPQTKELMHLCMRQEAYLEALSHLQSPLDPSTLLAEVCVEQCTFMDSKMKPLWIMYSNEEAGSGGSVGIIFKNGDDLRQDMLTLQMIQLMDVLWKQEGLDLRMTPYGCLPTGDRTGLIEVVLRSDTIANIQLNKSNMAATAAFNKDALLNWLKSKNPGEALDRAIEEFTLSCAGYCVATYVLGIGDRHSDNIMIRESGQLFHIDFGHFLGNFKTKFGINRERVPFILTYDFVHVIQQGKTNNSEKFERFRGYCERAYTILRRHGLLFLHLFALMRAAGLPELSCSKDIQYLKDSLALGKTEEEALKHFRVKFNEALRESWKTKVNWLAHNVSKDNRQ
# p110δ/p85, sequence (P27986 whole entry partner, species assumed): as the sequence (P27986 whole entry partner, species assumed) above
# Experimental: as §1
# NZB5 = assay: Cellular growth inhibition (3H-thymidine incorporation); format: cell-based; conditions: Homo sapiens, five days incubation, 3H-thymidine over the last 6 hrs, read-out: Cell IC50* NZB5
# Experimental: (§2) The compounds were evaluated against two early passage human cell lines NZB5 and NZOV9 (Marshall et al., Oncol. Res. 2004, 14, 297). The cells were grown in ITS medium (α-modified minimal essential medium supplemented insulin, transferrin, selenite, and 5% fetal bovine serum) and grown on 96-well tissue culture plates under an atmosphere of 5% O2, 5% CO2, and 90% N2. Individual wells contained 500-1,000 cells (depending on the growth rate) in a volume of 150 μL. Compounds were added at 10-fold concentration steps to a maximum of 20 μM and plates were incubated for five days, with ^3H-thymidine being added over the last 6 hrs. Cells were harvested and incorporated radioactivity measured. Duplicate samples were analyzed for each compound dose with multiple control samples. Data were fitted by a least-squares method to an exponential of the form y=y0+ae^−bx, where y is the radioactivity (corrected for background and normalized to 100% of the control), x is the […], and y0, a, and b are variables, and the IC50 value defined as the compound concentration reducing ^3H-thymidine levels by 50%.
# NZOV9 = assay: as above; format: cell-based; conditions: Homo sapiens, five days incubation, 3H-thymidine over the last 6 hrs, read-out: Cell IC50* NZOV9
# Experimental: as §2
# p110α/p85, sequence (P42336 whole entry): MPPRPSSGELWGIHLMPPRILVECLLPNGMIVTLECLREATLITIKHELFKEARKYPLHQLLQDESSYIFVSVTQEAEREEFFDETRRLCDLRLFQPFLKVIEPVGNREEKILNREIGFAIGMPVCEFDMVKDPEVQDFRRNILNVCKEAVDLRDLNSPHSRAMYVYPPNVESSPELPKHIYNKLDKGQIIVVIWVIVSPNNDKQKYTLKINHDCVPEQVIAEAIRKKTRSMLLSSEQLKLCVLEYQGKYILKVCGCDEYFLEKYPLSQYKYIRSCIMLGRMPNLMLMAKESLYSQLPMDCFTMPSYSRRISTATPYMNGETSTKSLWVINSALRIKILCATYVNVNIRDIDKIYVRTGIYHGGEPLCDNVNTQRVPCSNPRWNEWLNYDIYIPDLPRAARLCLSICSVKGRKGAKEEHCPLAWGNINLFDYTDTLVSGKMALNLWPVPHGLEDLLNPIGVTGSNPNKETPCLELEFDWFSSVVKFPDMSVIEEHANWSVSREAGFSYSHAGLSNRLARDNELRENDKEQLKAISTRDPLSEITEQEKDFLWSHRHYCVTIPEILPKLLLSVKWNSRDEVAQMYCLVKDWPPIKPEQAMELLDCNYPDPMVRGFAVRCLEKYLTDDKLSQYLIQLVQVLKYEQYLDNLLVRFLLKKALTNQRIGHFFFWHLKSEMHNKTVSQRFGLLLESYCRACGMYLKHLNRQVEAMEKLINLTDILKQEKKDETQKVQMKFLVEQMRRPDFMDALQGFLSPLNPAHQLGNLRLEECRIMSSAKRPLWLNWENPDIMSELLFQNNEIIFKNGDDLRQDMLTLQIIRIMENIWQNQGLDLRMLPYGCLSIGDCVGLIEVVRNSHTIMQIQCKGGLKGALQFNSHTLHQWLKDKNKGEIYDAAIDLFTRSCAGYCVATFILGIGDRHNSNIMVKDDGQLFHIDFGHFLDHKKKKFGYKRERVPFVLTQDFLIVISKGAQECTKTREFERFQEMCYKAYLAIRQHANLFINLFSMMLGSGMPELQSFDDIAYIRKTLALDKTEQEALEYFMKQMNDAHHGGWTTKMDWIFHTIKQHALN
# p110α/p85, sequence (P27986 whole entry partner): as the sequence (P27986 whole entry partner, species assumed) above
Compound,IC50 (p110α/p85),IC50 (p110β/p85),IC50 (p110δ/p85),melting point,IC50 (NZB5),IC50 (NZOV9)
"FC(F)c1nc2ccccc2n1-c1nc(Oc2ccccc2)nc(N2CCOCC2)n1 [Example 10, 2-(difluoromethyl)-1-[4-(4-morpholinyl)-6-phenoxy-1,3,5-triazin-2-yl]-1H-benzimidazole]",> 10000 nM,> 10000 nM,1000 to 10000 nM,228 to 231 °C,> 10000 nM,1000 to 10000 nM
"CSc1nc2ccccc2n1-c1nc(Nc2cccnc2)nc(N2CCOCC2)n1 [Example 4, 4-[2-(methylsulfanyl)-1H-benzimidazol-1-yl]-6-(4-morpholinyl)-N-(3-pyridinyl)-1,3,5-triazin-2-amine]",1000 to 10000 nM,1000 to 10000 nM,100 to 1000 nM,240 to 241 °C,< 100 nM,100 to 1000 nM
"FC(F)c1nc2ccccc2n1-c1nc(Nc2cnc3ccccc3c2)nc(N2CCOCC2)n1 [Example 18, N-[4-[2-(difluoromethyl)-1H-benzimidazol-1-yl]-6-(4-morpholinyl)-1,3,5-triazin-2-yl]-3-quinolinamine]",100 to 1000 nM,–,100 to 1000 nM,270 to 273 °C,100 to 1000 nM,100 to 1000 nM
"FC(F)c1nc2ccccc2n1-c1nc(NCc2ccncc2)nc(N2CCOCC2)n1 [Example 15, 4-[2-(difluoromethyl)-1H-benzimidazol-1-yl]-6-(4-morpholinyl)-N-(4-pyridinylmethyl)-1,3,5-triazin-2-amine]",100 to 1000 nM,–,–,188 to 190 °C,100 to 1000 nM,100 to 1000 nM
"CS(=O)(=O)c1nc2ccccc2n1-c1nc(Nc2cccnc2)nc(N2CCOCC2)n1 [Example 5, 4-[2-(methylsulfonyl)-1H-benzimidazol-1-yl]-6-(4-morpholinyl)-N-(3-pyridinyl)-1,3,5-triazin-2-amine]",100 to 1000 nM,100 to 1000 nM,< 100 nM,208 to 211 °C,100 to 1000 nM,100 to 1000 nM
"FC(F)c1nc2ccccc2n1-c1nc(Sc2ccccc2)nc(N2CCOCC2)n1 [Example 11, 2-(difluoromethyl)-1-[4-(4-morpholinyl)-6-(phenylsulfanyl)-1,3,5-triazin-2-yl]-1H-benzimidazole]",> 10000 nM,> 10000 nM,1000 to 10000 nM,245 to 248 °C,> 10000 nM,> 10000 nM
"FC(F)c1nc2ccccc2n1-c1nc(Nc2cncnc2)nc(N2CCOCC2)n1 [Example 35, 4-[2-(difluoromethyl)-1H-benzimidazol-1-yl]-6-(4-morpholinyl)-N-(5-pyrimidinyl)-1,3,5-triazin-2-amine]",–,100 to 1000 nM,–,–,–,–
"FC(F)c1nc2ccccc2n1-c1nc(NCc2ccccc2)nc(N2CCOCC2)n1 [Example 8, N-benzyl-4-[2-(difluoromethyl)-1H-benzimidazol-1-yl]-6-(4-morpholinyl)-1,3,5-triazin-2-amine]",100 to 1000 nM,< 100 nM,< 100 nM,185 to 188 °C,100 to 1000 nM,100 to 1000 nM
"CN(Cc1ccccc1)c1nc(N2CCOCC2)nc(-n2c(C(F)F)nc3ccccc32)n1 [Example 9, N-benzyl-4-[2-(difluoromethyl)-1H-benzimidazol-1-yl]-N-methyl-6-(4-morpholinyl)-1,3,5-triazin-2-amine]",1000 to 10000 nM,100 to 1000 nM,< 100 nM,147 to 150 °C,–,100 to 1000 nM
"FC(F)c1nc2ccccc2n1-c1nc(Nc2ncccn2)nc(N2CCOCC2)n1 [Example 19, 4-[2-(difluoromethyl)-1H-benzimidazol-1-yl]-6-(4-morpholinyl)-N-(2-pyrimidinyl)-1,3,5-triazin-2-amine]",100 to 1000 nM,–,–,261 to 263 °C,100 to 1000 nM,100 to 1000 nM
"FC(F)c1nc2ccccc2n1-c1nc(Nc2ccccn2)nc(N2CCOCC2)n1 [Example 16, 4-[2-(difluoromethyl)-1H-benzimidazol-1-yl]-6-(4-morpholinyl)-N-(2-pyridinyl)-1,3,5-triazin-2-amine]",< 100 nM,–,< 100 nM,230 to 232 °C,100 to 1000 nM,100 to 1000 nM
"FC(F)c1nc2ccccc2n1-c1nc(Nc2cnccn2)nc(N2CCOCC2)n1 [Example 22, 4-[2-(difluoromethyl)-1H-benzimidazol-1-yl]-6-(4-morpholinyl)-N-(2-pyrazinyl)-1,3,5-triazin-2-amine]",< 100 nM,–,< 100 nM,271 to 274 °C,100 to 1000 nM,100 to 1000 nM
"FC(F)c1nc2ccccc2n1-c1nc(Oc2cccnc2)nc(N2CCOCC2)n1 [Example 24, 2-(difluoromethyl)-1-[4-(4-morpholinyl)-6-(3-pyridinyloxy)-1,3,5-triazin-2-yl]-1H-benzimidazole]",100 to 1000 nM,–,–,229 to 231 °C,1000 to 10000 nM,1000 to 10000 nM

# More lines, main results first:
IC50 (p110α/p85),IC50 (p110β/p85),IC50 (p110δ/p85),melting point,Compound,IC50 (NZB5),IC50 (NZOV9)
< 100 nM,100 to 1000 nM,< 100 nM,261 to 263 °C,"COc1cccc2c1nc(C(F)F)n2-c1nc(Nc2ccc(F)nc2)nc(N2CCOCC2)n1 [Example 29, 4-[2-(difluoromethyl)-4-methoxy-1H-benzimidazol-1-yl]-N-(6-fluoro-3-pyridinyl)-6-(4-morpholinyl)-1,3,5-triazin-2-amine]",< 100 nM,< 100 nM
< 100 nM,–,< 100 nM,290 to 292 °C,"FC(F)c1nc2ccccc2n1-c1nc(Nc2cncnc2)nc(N2CCOCC2)n1 [Example 21, 4-[2-(difluoromethyl)-1H-benzimidazol-1-yl]-6-(4-morpholinyl)-N-(5-pyrimidinyl)-1,3,5-triazin-2-amine]",100 to 1000 nM,100 to 1000 nM
< 100 nM,100 to 1000 nM,< 100 nM,161 to 163 °C,"COc1ccncc1Nc1nc(N2CCOCC2)nc(-n2c(C(F)F)nc3ccccc32)n1 [Example 26, 4-[2-(difluoromethyl)-1H-benzimidazol-1-yl]-N-(4-methoxy-3-pyridinyl)-6-(4-morpholinyl)-1,3,5-triazin-2-amine]",100 to 1000 nM,100 to 1000 nM
< 100 nM,100 to 1000 nM,< 100 nM,256 to 259 °C,"COc1ccc(Nc2nc(N3CCOCC3)nc(-n3c(C(F)F)nc4c(OC)cccc43)n2)nn1 [Example 34, 4-[2-(difluoromethyl)-4-methoxy-1H-benzimidazol-1-yl]-N-(6-methoxy-3-pyridazinyl)-6-(4-morpholinyl)-1,3,5-triazin-2-amine]",100 to 1000 nM,100 to 1000 nM
< 100 nM,–,< 100 nM,233 to 235 °C,"FC(F)c1nc2ccccc2n1-c1nc(Nc2ccncn2)nc(N2CCOCC2)n1 [Example 20, 4-[2-(difluoromethyl)-1H-benzimidazol-1-yl]-6-(4-morpholinyl)-N-(4-pyrimidinyl)-1,3,5-triazin-2-amine]",100 to 1000 nM,100 to 1000 nM
< 100 nM,100 to 1000 nM,< 100 nM,–,"COc1ncc(Nc2nc(N3CCOCC3)nc(-n3c(C(F)F)nc4c(OC)cccc43)n2)cn1 [Example 40, 4-[2-(difluoromethyl)-4-methoxy-1H-benzimidazol-1-yl]-N-(2-methoxy-5-pyrimidinyl)-6-(4-morpholinyl)-1,3,5-triazin-2-amine]",100 to 1000 nM,100 to 1000 nM
